Measured values from patent publication US20260125346A1, “Isoquinolinone Derivatives and 4H-Quinolizinone Derivatives and Pharmaceutical Compositions Thereof for the Treatment of Disease” (BeOne Medicines I GmbH, priority 2023, published 2026).

Assays:
[1] = target: PI3Kα (p110/p85) kinase (wild type, "WT") (Homo sapiens, UniProt P42336); assay: PI3Kα (p110/p85) kinase ADP-Glo Assay; assay type: biochemical; details: 25 uM ATP
Method: PI3Kα (p110/p85) kinase ADP-Glo Assay. Certain compounds disclosed herein were tested for inhibition of PI3Kα (p110/p85) kinase (wild type, “WT”) in assays based on the ADP-Glo™ Kinase Assay methodology. The assays were carried out in 384-well white plates in a reaction mixture containing PI3Kα (p110/p85) kinase, 25 µM ATP, 5.35 µg/mL PI(4,5)P2:PS Lipid Kinase Substrate and […] compound in buffer containing 50 mM HEPES pH7.5, 50 mM NaCl, 3 mM MgCl2, 0.0025% BSA and 2 mM DTT. PI3Kα (p110/p85) kinase was incubated with Lipid Kinase Substrate and compound for 30 minutes at room temperature and the reaction was initiated by the addition of ATP. After reaction at room temperature for 120 minutes, ADP-Glo™ reagents were added to terminate the kinase reaction and deplete the remaining ATP according to the manufacture's instruction (Promega Corporation). After incubation at room temperature for 1 hour, Kinase Detection Reagent (prepared by reconstituting the lyophilized Kinase Detection Substrate with Kinase Detection Buffer of the kit) was added to convert the ADP to ATP and to allow for the newly synthesized ATP to be measured using a luciferase/luciferin reaction. After incubation at room temperature for 0.5 hour, chemiluminescence signals were recorded on a PHERAstar FSX plate reader (BMG Labtech). The chemiluminescence generated in this assay correlates to the amount of ADP generated in the kinase assay, indicating kinase activity. […] The IC50 for each compound was derived from fitting the data to the four-parameter logistic equation by Dotmatics.

[2] = target: PI3Kα (p110[H1047R]/p85) kinase (Homo sapiens, UniProt P42336, H1047R); assay: PI3Kα (p110[H1047R]/p85) kinase ADP-Glo Assay; assay type: biochemical; details: 25 uM ATP; for selectivity: WT/H1047R: ADP-Glo Assay IC50 ratio
Sequence of PI3Kα (p110[H1047R]/p85) kinase (P42336 whole entry H1047R): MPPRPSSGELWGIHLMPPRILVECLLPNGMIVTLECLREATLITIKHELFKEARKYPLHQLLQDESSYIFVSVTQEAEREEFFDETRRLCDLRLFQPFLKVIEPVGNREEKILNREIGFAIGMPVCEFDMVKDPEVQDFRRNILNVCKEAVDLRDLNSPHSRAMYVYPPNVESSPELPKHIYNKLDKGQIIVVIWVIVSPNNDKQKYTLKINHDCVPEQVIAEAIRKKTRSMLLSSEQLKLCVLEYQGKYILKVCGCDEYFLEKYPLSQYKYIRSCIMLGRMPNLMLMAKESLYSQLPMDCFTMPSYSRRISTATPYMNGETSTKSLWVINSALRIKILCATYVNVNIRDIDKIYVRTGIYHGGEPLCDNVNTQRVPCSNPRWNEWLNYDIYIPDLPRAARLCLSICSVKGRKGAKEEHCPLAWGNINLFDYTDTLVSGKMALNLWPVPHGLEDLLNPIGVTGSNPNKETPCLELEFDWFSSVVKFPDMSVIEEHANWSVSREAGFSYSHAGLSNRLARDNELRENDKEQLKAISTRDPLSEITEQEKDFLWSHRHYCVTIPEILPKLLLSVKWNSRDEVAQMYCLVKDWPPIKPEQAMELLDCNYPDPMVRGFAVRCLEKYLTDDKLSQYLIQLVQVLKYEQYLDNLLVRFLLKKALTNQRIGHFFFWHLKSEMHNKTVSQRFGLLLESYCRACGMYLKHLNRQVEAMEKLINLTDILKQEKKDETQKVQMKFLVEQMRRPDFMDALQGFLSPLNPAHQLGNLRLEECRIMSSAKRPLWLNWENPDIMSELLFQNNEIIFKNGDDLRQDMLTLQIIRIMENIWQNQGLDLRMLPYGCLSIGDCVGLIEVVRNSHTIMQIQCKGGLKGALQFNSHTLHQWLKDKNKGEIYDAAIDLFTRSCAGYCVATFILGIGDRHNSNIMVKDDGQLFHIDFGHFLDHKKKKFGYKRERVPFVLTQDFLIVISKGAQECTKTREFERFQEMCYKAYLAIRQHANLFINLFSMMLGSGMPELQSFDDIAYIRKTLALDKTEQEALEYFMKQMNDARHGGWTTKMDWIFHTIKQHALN
Sequence of PI3Kα (p110[H1047R]/p85) kinase (P27986 whole entry partner): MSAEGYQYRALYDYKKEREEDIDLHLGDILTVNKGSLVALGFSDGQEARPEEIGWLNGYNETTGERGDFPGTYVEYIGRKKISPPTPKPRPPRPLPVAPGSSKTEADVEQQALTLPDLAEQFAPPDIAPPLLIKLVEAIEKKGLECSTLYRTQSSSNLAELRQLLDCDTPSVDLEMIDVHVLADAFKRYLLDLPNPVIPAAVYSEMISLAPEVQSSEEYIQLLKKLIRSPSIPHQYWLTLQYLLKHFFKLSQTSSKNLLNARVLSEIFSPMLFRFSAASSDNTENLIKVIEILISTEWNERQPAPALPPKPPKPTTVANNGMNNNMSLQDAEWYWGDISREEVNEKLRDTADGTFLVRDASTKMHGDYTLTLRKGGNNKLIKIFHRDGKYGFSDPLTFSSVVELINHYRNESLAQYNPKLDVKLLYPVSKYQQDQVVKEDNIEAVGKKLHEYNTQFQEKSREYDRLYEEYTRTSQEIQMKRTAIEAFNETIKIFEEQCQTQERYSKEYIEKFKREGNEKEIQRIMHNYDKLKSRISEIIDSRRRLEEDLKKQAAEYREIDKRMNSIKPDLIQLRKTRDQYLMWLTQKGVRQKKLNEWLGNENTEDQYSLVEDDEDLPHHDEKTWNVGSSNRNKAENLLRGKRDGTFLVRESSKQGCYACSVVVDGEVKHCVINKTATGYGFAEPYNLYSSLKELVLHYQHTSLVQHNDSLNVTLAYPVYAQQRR
Method: PI3Kα (p110[H1047R]/p85) kinase ADP-Glo Assay. Certain compounds disclosed herein were tested for inhibition of PI3Kα (p110[H1047R]/p85) kinase in assays based on the ADP-Glo™ Kinase Assay methodology. The assays were carried out in 384-well white plates in a reaction mixture containing PI3Kα (p110[H1047R]/p85) kinase, 25 µM ATP, 5.35 µg/ml PI(4,5)P2:PS Lipid Kinase Substrate and […] compound in buffer containing 50 mM HEPES pH7.5, 50 mM NaCl, 3 mM MgCl2, 0.0025% BSA and 2 mM DTT. PI3Kα (p110[H1047R]/p85) kinase was incubated with Lipid Kinase Substrate and compound for 30 minutes at room temperature and the reaction was initiated by the addition of ATP.
After reaction at room temperature for 120 minutes, ADP-Glo™ reagents were added to terminate the kinase reaction and deplete the remaining ATP according to the manufacture's instruction (Promega Corporation). After incubation at room temperature for 1 hour, Kinase Detection Reagent (prepared by reconstituting the lyophilized Kinase Detection Substrate with Kinase Detection Buffer of the kit) was added to convert the ADP to ATP and to allow for the newly synthesized ATP to be measured using a luciferase/luciferin reaction. After incubation at room temperature for 0.5 hour, chemiluminescence signals were recorded on a PHERAstar FSX plate reader (BMG Labtech). The chemiluminescence generated in this assay correlates to the amount of ADP generated in the kinase assay, indicating kinase activity. […] The IC50 for each compound was derived from fitting the data to the four-parameter logistic equation by Dotmatics.

[3] = system: PI3Kα H1047R mutated cell line T-47D; assay: Phospho-AKT (Ser473) Inhibition Assay (HTRF), T-47D; assay type: cell-based; details: for IC50: Homo sapiens, T47D, T-47D, 1 hour treatment, read-out: p-AKT Inhibition assay (S473) IC50 T-47D; for Selectivity: SK-BR-3/T-47D (p-AKT): p-AKT (S473) IC50 ratio
Method: Cell Culture Maintenance. The T-47D (ATCC, HTB-133) cell line was obtained from the American Type Culture Collection. Cells were maintained in RPMI1640 medium (Gibco, REF #22400105) supplemented with 10% Fetal Bovine Serum (Gibco, REF #10091148). Cultures were maintained in a humidified incubator at 37° C. under 5% CO2/95% air.
(§1) Phospho-AKT Inhibition Assay. HTRF Phospho-AKT (Ser473) detection kit (Cisbio, REF #64AKSPEH) was used in phosphor-AKT inhibition assay. For compound screening, PI3Kα H1047R mutated cell line T-47D and WT cell line SK-BR-3 cells were seeded at a density of 3×10^4 cells per well in 96 well plate (Costar, REF #3599) in 95 μL of assay medium (MEM medium (Gibco, REF #12561-056) with 1×NEAA (Gibco, REF #11140-050), 1 mM sodium pyruvate (Gibco, REF #11360-070), and 1 g/ml human insulin (Topscience, REF #T8221)), overnight. Compounds dissolved in 10 mM stock solutions in DMSO were serially diluted 1:3 in DMSO to generate an 11-point dilution series and plated using an INTEGRA ASSIST PLUS pipetting robot. A 20× intermediate compound dilution plate in RPMI1640 medium (200 M starting compound concentration in 2% DMSO) was then prepared. Five μL of intermediate serially diluted compounds were added to the cell plate to final concentrations ranging from […] to 0.1 nM in 0.1% DMSO. 0.1% DMSO alone was used to establish the maximum signal and GDC0077 at final concentration of 10 μM was used as a reference compound for minimum signal. After 1 hour treatment, removed medium and added 50 μL of supplemented lysis buffer (1×) immediately. Incubated for at least 30 minutes at room temperature under shaking. Transferred 16 μL of cell lysate from the 96-well cell-culture plate to a 384-white detection plate (PerkinElmer, Optiplate 384, 6007299). Added 4 μL of premixed antibody solutions prepared in the detection buffer. Incubated 4 hours at room temperature in dark. The plates were read on PHERAstar FSX Microplate reader (BMG LABTECH, Inc.) using standard HTRF settings.
(§2) Relative IC50 values were determined using luminescence units by calculating percent inhibition with respect to the in-plate “MIN” (GDC0077 reference control) and “MAX” (DMSO) controls. The data were analyzed using a 4-parameter nonlinear logistic equation (four-parameter logistic concentration-response curve): Y=bottom+[(top−bottom)/1+(X/IC50) slope] • where Y=% inhibition, X=concentration of inhibitor, bottom=minimum value of y attained by curve-fit, top=maximum value of y attained by curve-fit and slope=steepness of curve at the IC50.

WT cell line SK-BR-3 = assay: Phospho-AKT (Ser473) Inhibition Assay (HTRF), SK-BR-3; assay type: cell-based; details: Homo sapiens; SK-BR-3, 1 hour treatment; read-out: p-AKT Inhibition assay (S473) IC50 SK-BR-3
Method: The SK-BR-3 (ATCC, HTB-30) cell line was obtained from the American Type Culture Collection. Cells were maintained in McCoy' 5A medium (Gibco, REF #16600108) supplemented with 10% Fetal Bovine Serum. Cultures were maintained in a humidified incubator at 37° C. under 5% CO2/95% air.
as §1, §2

Sequence of PI3Kα (p110/p85) kinase (wild type, "WT") (P42336 whole entry): as the sequence (P42336 whole entry H1047R) above, with R1047H counted along it
Sequence of PI3Kα (p110/p85) kinase (wild type, "WT") (P27986 whole entry partner): as the sequence (P27986 whole entry partner) above

Cc1cc(C(C)Nc2ccccc2C(=O)O)c2cc(-c3cnn(-c4cccc(C#N)c4)c3)n(C)c(=O)c2c1 (stereo not shown) [Example 29, 2-((1-(3-(1-(3-cyanophenyl)-1H-pyrazol-4-yl)-2,7-dimethyl-1-oxo-1,2-dihydroisoquinolin-5-yl)ethyl)amino)benzoic acid]
IC50 [1]: 3.8 µM | IC50 [2]: 0.26 µM | selectivity: WT/H1047R [2]: 15 | IC50 [3]: 0.107 µM | Selectivity: SK-BR-3/T-47D (p-AKT) [3]: 25 | IC50 (WT cell line SK-BR-3): 2.7 µM

Cc1cc([C@H](C)Nc2ccccc2C(=O)O)c2cc(-c3ccc(-c4cnn(C)c4)cc3)n(C)c(=O)c2c1 [Example 41, (S)-2-((1-(2,7-dimethyl-3-(4-(1-methyl-1H-pyrazol-4-yl)phenyl)-1-oxo-1,2-dihydroisoquinolin-5-yl)ethyl)amino)benzoic acid]
IC50 [1]: 61 µM | IC50 [2]: 7.18 µM | selectivity: WT/H1047R [2]: 8.5 | IC50 [3]: > 10 µM | IC50 (WT cell line SK-BR-3): 3.23 µM

Cc1cc(C(C)Nc2c(C(=O)O)nn3c2CCC3)c2cc(-c3ccccc3)n(C)c(=O)c2c1 (stereo not shown) [Example 83, 3-((1-(2,7-dimethyl-1-oxo-3-phenyl-1,2-dihydroisoquinolin-5-yl)ethyl)amino)-5,6-dihydro-4H-pyrrolo[1,2-b]pyrazole-2-carboxylic acid]
IC50 [1]: 55.5 µM | IC50 [2]: 0.485 µM | selectivity: WT/H1047R [2]: 114.5 | IC50 [3]: 6.75 µM | Selectivity: SK-BR-3/T-47D (p-AKT) [3]: >1.48 | IC50 (WT cell line SK-BR-3): > 10 µM

Cc1cc(C(C)Nc2ccccc2C(=O)O)c2cc(-c3cnc(O)nc3)n(C)c(=O)c2c1 (stereo not shown) [Example 85, 2-((1-(3-(2-hydroxypyrimidin-5-yl)-2,7-dimethyl-1-oxo-1,2-dihydroisoquinolin-5-yl)ethyl)amino)benzoic acid]
IC50 [1]: 26.8 µM | IC50 [2]: 1.1 µM | selectivity: WT/H1047R [2]: 24.3 | IC50 [3]: > 10 µM | IC50 (WT cell line SK-BR-3): > 10 µM
